The record followed here is patent US7238813B2, “Chemical compounds” (Smithkline Beecham Corporation, priority 2000, dated 2007).

pIC50: −log10 of the molar value. Structures can show the parent of a compound that is named as a salt.

The target in assay [1] is T1, TIE2 intracellular domain/c-fms extracellular domain (TIE2/c-fms) chimeric protein expressing mouse 3T3 cells (Homo sapiens, UniProt Q02763).
T1 construct: a TIE2 intracellular domain/c-fms extracellular domain (TIE2/c-fms) chimeric protein; expressed in transfected cells; host or cells: mouse 3T3 cells
T1 sequence (Q02763 770-1124 limits assumed, change not shown): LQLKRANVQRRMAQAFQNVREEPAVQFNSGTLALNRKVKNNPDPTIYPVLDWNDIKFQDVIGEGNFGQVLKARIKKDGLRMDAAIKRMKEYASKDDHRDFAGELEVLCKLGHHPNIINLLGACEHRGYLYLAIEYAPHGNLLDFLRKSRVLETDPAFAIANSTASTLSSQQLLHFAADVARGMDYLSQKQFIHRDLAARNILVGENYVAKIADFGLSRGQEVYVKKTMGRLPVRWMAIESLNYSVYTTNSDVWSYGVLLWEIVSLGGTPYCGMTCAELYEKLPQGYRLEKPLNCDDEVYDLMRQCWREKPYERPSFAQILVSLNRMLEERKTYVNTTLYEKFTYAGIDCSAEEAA
Kind of assay: TIE-2 autophosphorylation assay (TIE2-C), ELISA. The note with it: TIE2/c-fms 3T3 cells, MCSF activation. The format is cell-based. As to the method:
TIE-2 Autophosphorylation Assay (TIE2-C)
The TIE-2 autophosphorylation assay used an ELISA method and a TIE2 intracellular domain/c-fms extracellular domain (TIE2/c-fms) chimeric protein expressing mouse 3T3 cells. This assay measured the autophosphorylation level of TIE2 protein expressed in cells. The cells were cultured in high glucose DMEM (Sigma) containing 10% serum at 37° C. in a humidified 10% CO2, 90% air incubator. The test compound (diluted from a 10 mM stock in DMSO, final DMSO concentration was 0.1%) was incubated with TIE2/c-fms expressing cells for 1 hr in serum free DMEM in 96 well plates followed by the activation of TIE2/c-fms receptor using c-fms ligand, MCSF (macrophage colony stimulating factor). The culture media was removed by aspiration and the cells incubated for at least 30 mins on ice with lysis buffer containing 137 mM NaCl, 2 mM EDTA, 10% glycerol, […] sodium ortho vanadate and complete protease inhibitor cocktail (Roche) in 20 mM Tris-HCl (pH8.0). The cell extracts were transferred into Rat anti-c-fms antibody coated 96 well plates and incubated for 12 hrs at 4° C. The extracts were removed by aspiration and the plate was incubated with biotinylated anti-phosphotyrosine antibody, PT66 (Sigma) and then with HRP (Horseradish Peroxidase)-labeled streptavidin (PIERCE). The optical density at 450 nm derived from HRP catalyzed TMB was measured with an ARVO multilabel counter. (Wallac Berthold Japan). The percent inhibition of activity was calculated relative to blank control wells. The concentration of test compound that inhibits 50% of activity (IC50) was interpolated using nonlinear regression (Levernberg-Marquardt) and the equation, y=Vmax (1−x/(K+x))+Y2, where “K” was equal to the IC50. The IC50 values were converted to pIC50 values, i.e., −log IC50 in Molar concentration.
(An ELISA detects its analyte on a solid surface through an enzyme-linked reagent.)

In assay [2] the target is T2, GST-VEGFR2 (Homo sapiens, UniProt P35968).
T2 construct: GST-VEGFR2, baculovirus expressed recombinant constructs of the intracellular domains of human TIE2 tagged by GST; made in house
T2 sequence (P35968 786-1356 limits assumed): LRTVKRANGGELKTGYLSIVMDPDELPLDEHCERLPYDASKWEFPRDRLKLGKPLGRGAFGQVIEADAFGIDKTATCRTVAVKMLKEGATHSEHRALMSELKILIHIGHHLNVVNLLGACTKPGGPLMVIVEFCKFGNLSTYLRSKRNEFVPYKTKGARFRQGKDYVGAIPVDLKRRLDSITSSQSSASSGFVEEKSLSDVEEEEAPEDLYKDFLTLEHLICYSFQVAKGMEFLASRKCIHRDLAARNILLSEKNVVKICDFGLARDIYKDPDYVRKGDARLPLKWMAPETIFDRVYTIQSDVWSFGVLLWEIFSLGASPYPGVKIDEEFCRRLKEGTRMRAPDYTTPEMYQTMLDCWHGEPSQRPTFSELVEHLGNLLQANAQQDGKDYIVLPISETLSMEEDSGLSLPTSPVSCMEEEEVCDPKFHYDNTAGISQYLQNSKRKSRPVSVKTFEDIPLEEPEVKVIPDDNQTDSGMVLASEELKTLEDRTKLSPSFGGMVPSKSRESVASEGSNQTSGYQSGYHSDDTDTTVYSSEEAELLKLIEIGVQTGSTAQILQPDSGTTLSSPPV
The assay can be described thus: VEGF-R2 enzyme assay (VEGF-E), LANCE method. The format is biochemical. The note with it: 75 μM ATP. (In general: TR-FRET usually uses a lanthanide donor and a delayed reading to cut background.)

For assay [3], the system named is Human umbilical cord endothelial cells (HUVEC). Kind of assay: VEGF-driven cellular proliferation assay: BrdU incorporation assay (VEGF-C). The note with it: for pIC50: Homo sapiens. It is filed as cell-based. Also noted: key to VEGF-C: + = pIC50 of 5.0–6.0; ++ = pIC50 of 6.0–7.0; +++ = pIC50 of > 7.0; − = a negative or inconclusive result. Here is the method: VFGF-driven Cellular Proliferation Assay: BrdU Incorporation Assay (VEGF-C)
Human umbilical cord endothelial cells (HUVEC, Clonetics, CC2519) were passaged in Type I collagen-coated 100-mm petridishes in EGM-MV medium (Clonetics, CC3125) at 37° C. in a humidified 5% CO2, 95% air incubator. (HUVEC passaged more than 6 times in vitro were discarded and not subjected to assaying.) The cells were harvested using trypsin/EDTA, counted using a haemocytometer and plated at 5000 cells/well in a Type I-collagen coated 96-well plate (Becton Dickinson, 354407) in M199 medium (Gibco BRL, 12340-030) containing 5% FBS (Hyclone, A 1115-L) and gentamicin (at 50 μg/ml, Gibco BRL). After incubation overnight at 37° C., the media were replaced with 100 μl of M199 serum-free medium containing compounds at various concentrations with 0.6% DMSO and gentamicin. The compounds were diluted in serum-free M199 medium from 10 mM stock solutions prepared in 100% DMSO. After a 30 min incubation at 37° C., the cells were fed with 100 μl of serum-free M199 medium containing gentamicin, 0.2% culture-grade bovine serum albumin (BSA, Sigma A1993) and 20 ng/ml of VEGF (R&D systems, 293-VE) or 0.6 ng/ml of basic FGF (R&D systems, 233-FB), and cultured at 37° C. for another 24 h. The cells were pulsed with bromodeoxyuridine (BrdU at 10 μM in serum-free M199) at 37° C. for an additional 24 h. The incorporation of BrdU into the proliferating HUVEC were analyzed using BrdU Cell Proliferation ELISA (Roche Molecular Biochemicals, 1647229) according to the manufacturer's protocols. The optical density at 450 nm was measured with a multilabel counter (ARVO SX, Wallac). The percent inhibition of cell growth was calculated relative to blank control wells. The concentration of test compound that inhibits 50% of cell growth (IC50) was interpolated using nonlinear regression (Levernberg-Marquardt) and the equation, y=Vmax (1−x/(K+x))+Y2, where “K” was equal to the IC50. The IC50, values were converted to pIC50 values, i.e., −log IC50 in Molar concentration.
For orientation: Incorporation of labelled thymidine or its analogues reports DNA synthesis.

Assay [4] concerns the target T3, GST-TIE2 (intracellular domains of human TIE2) (Homo sapiens, UniProt Q02763).
T3 construct: made in house
Kind of assay: TIE-2 enzyme assay (TIE2-E), LANCE method. The format is biochemical. The conditions noted are these: 80 uM ATP. In short, it runs like this:
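Baculovirus GST-TIE2 (human intracellular domain, aa 762–1104) preactivated 30 min at RT with 2 mM ATP, then reacted 30 min at RT with 1 μM D1-15 peptide, 80 uM ATP, 10 mM MgCl2, pH 7.4, 2.4% DMSO. EDTA-stopped; LANCE Eu-anti-pTyr/streptavidin-APC read-out. IC50 by nonlinear regression, reported as pIC50.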

T3 sequence (Q02763 762-1104): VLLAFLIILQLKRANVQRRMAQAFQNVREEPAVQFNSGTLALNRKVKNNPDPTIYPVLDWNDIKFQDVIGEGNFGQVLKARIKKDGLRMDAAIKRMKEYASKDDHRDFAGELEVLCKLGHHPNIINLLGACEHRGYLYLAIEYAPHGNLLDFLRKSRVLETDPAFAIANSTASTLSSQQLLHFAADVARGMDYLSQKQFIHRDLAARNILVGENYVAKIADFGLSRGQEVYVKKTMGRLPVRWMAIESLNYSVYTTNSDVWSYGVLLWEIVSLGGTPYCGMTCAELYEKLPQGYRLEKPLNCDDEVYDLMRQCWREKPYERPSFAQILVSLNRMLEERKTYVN

As a reminder, the pIC50 is −log10 of the IC50, conventionally taken in molar units. Regarding `COC(=O)Nc1nc2ccc(Oc3ccc(NC(=O)Nc4cc(C(F)(F)F)ccc4Cl)cc3)nc2[nH]1` [Example 72, Methyl N-(5-(4-((2-chloro-5-(trifluoromethyl)phenyl)aminocarbonylamino)phenoxy)-3,4-diaza-1H-indole-2-yl)carbamate dihydrochloride], the pIC50 in assay [1] was over 7.00; in assay [2], over 7.00; in assay [3], 5.00 to 6.00; in assay [4] it was over 7.00.

For `CN(C)CCCC(=O)Nc1nc2cc(Oc3ccc(NC(=O)Nc4cc(C(F)(F)F)ccc4F)cc3)ccc2[nH]1` [Example 92, N-(5-(4-((2-Fluoro-5-(trifluoromethyl)phenyl)aminocarbonylamino)phenoxy)-1H-benzimidazol-2-yl)-4-(dimethylamino)butylamide], the pIC50 in assay [1], in assay [2], in assay [3] and in assay [4] was over 7.00 each time.

Consider `COC(=O)Nc1nc2cc(Oc3cccc(NC(=O)Nc4cccc(Cl)c4)c3)ccc2[nH]1` [Example 14, Methyl (5-(3-((3-Chlorophenyl)aminocarbonylamino)phenoxy)-1H-benzimidazol-2-yl)carbamate hydrochloride], for which the pIC50 in assay [1] is 6.00 to 7.00; in assay [2], over 7.00; in assay [3], 6.00 to 7.00; in assay [4], 6.00 to 7.00.

Take `COCCOCCOCC(=O)Nc1nc2ccc(Oc3ccc(NC(=O)Nc4cc(C(F)(F)F)ccc4F)cc3)cc2[nH]1` [Example 33, N-(5-(4-((2-Fluoro-5-(trifluoromethyl)phenyl)aminocarbonylamino)phenoxy)-1H-benzimidazol-2-yl)(2-(2-(methoxy)ethoxy)ethoxy)acetamide]: the pIC50 in assay [1], in assay [2], in assay [3] and in assay [4] was over 7.00 throughout.

In the case of `COC(=O)Nc1nc2cc([S+]([O-])c3ccc(NC(=O)Nc4cc(C(F)(F)F)ccc4F)cc3)ccc2[nH]1` (stereo not drawn) [Example 13, Methyl N-(5-(4-((2-fluoro-5-(trifluoromethyl)phenyl)aminocarbonylamino)phenylsulfinyl)-1H-benzimidazol-2-yl)carbamate], the figures for the negative-log IC50 (pIC50) in assay [1], in assay [2] and in assay [4] were 6.00 to 7.00, 6.00 to 7.00 and over 7.00, respectively. Moreover, in assay [3], the VEGF-C result was “−”.

Take `CC(C)(C)OC(=O)NCC(=O)Nc1nc2cc(Oc3ccc(NC(=O)Nc4cc(C(F)(F)F)ccc4F)cc3)ccc2[nH]1` [Example 35, N-(5-(4-((2-Fluoro-5-(trifluoromethyl)phenyl)aminocarbonylamino)phenoxy)-1H-benzimidazol-2-yl)-2-(N-(t-butoxycarbony)amino)acetamide]: the pIC50 in assay [1] is 6.00 to 7.00; in assay [2], over 7.00; in assay [3], 5.00 to 6.00; in assay [4], over 7.00.

Turning to `COC(=O)Nc1nc2cc(Oc3cccc(NC(=O)Nc4cccc(C(F)(F)F)c4)c3)ccc2[nH]1` [Example 20, Methyl N-(5-(3-((3-(trifluoromethyl)phenyl)aminocarbonylamino)phenoxy)-1H-benzimidazol-2-yl)carbamate], the pIC50 in assay [1] is 6.00 to 7.00; in assay [3] it was over 7.00; in assay [4] it was over 7.00.

For `CC(=O)Nc1nc2cc(Oc3ccc(NC(=O)Nc4cc(C(F)(F)F)ccc4F)nc3)ccc2[nH]1` [Example 36, N-(5-(2-((2-fluoro-5-(trifluoromethyl)phenyl)aminocarbonylamino)-5-pyridyloxy)-1H-benzimidazol-2-yl)acetamide dihydrochloride], the pIC50 in assay [1] and in assay [4] was over 7.00 each time. For the same compound, the VEGF-C entry in assay [3] is listed as “−”.

Regarding `COCCOCC(=O)Nc1nc2ccc(Oc3ccc(NC(=O)Nc4cc(C(F)(F)F)ccc4F)cc3)cc2[nH]1` [Example 34], the pIC50 in assay [1] and in assay [4] was over 7.00 each time. The VEGF-C result in assay [3] was “−”.

With `COC(=O)Nc1nc2cc(Oc3ccc(NC(=O)Nc4cccc(SC(F)(F)F)c4)cc3)ccc2[nH]1` [Example 41, Methyl N-(5-(4-((3-(trifluoromethylthio)phenyl)aminocarbonylamino)phenoxy)-1H-benzimidazol-2-yl)carbamate], the pIC50 in assay [1] and in assay [4] was over 7.00 throughout. In assay [3], the VEGF-C entry is “−”.

Turning to `CN1CCN(CC(=O)Nc2nc3ccc(Oc4ccc(NC(=O)Nc5cc(C(F)(F)F)ccc5F)cc4)cc3[nH]2)CC1` [Example 101, N-(5-(4-((2-Fluoro-5-(trifluoromethyl)phenyl)aminocarbonylamino)phenoxy)-1H-benzimidazol-2-yl)(4-methyl-1-piperazino)acetamide], the pIC50 in assay [1], in assay [3] and in assay [4] was over 7.00 in each case.

Turning to `COC(=O)Nc1nc2cc(Oc3ccc(NC(=O)Nc4cccc(C(C)(C)C)c4)cc3)ccc2[nH]1` [Example 21, Methyl N-(5-(4-((3-t-butylphenyl)aminocarbonylamino)phenoxy)-1H-benzimidazol-2-yl)carbamate], the negative-log IC50 (pIC50) in assay [1] and in assay [4] was over 7.00 throughout. The VEGF-C entry in assay [3] is reported as “−”.

On to `CS(=O)(=O)n1c(N)nc2ccc(Oc3ccc(NC(=O)Nc4cc(C(F)(F)F)ccc4F)cc3)cc21` [Example 23], for which the pIC50 in assay [1] is over 7.00; in assay [3], 6.00 to 7.00; in assay [4], over 7.00.

For the compound `CCc1cccc(NC(=O)Nc2ccc(Oc3ccc4[nH]c(NC(=O)OC)nc4c3)cc2)c1` [Example 11, Methyl N-(5-(4-((3-ethylphenyl)aminocarbonylamino)phenoxy)-1H-benzimidazol-2-yl)carbamate], the values for the pIC50 in assay [1] and in assay [4] were 6.00 to 7.00 and over 7.00, respectively. Besides, the VEGF-C entry in assay [3] is recorded as “−”.

`COC(=O)Nc1nc2ccc(Oc3ccc(NC(=O)Nc4cc(C(F)(F)F)ccc4Cl)cc3)cc2s1` [Example 76, Methyl N-(6-(4-((2-chloro-5-(trifluoromethyl)phenyl)aminocarbonylamino)phenoxy)benzthiazol-2-yl)carbamate]: the pIC50 in assay [1] and in assay [4] was over 7.00 each time. Further, in assay [3], the VEGF-C result was “−”.

In the case of `O=C(O)CCC(=O)Nc1nc2cc(Oc3ccc(NC(=O)Nc4cc(C(F)(F)F)ccc4F)cc3)ccc2[nH]1` [Example 32, 3-(N-(5-(4-((2-Fluoro-5-(trifluoromethyl)phenyl)aminocarbonylamino)phenoxy)-1H-benzimidazol-2-yl)carbamoyl)propionic acid], the results for the pIC50 in assay [1], in assay [3] and in assay [4] were 6.00 to 7.00, 5.00 to 6.00 and over 7.00, respectively.
